This passage reports IC50 and inhibition results from ChEMBL document CHEMBL1133957, “A selective inhibitor of Escherichia coli prephenate dehydratase” (Bioorg Med Chem Lett, 2001).

Experiment [1] is described as follows: Inhibitory activity against chorismate mutase. The arrangement: species or system Escherichia coli.
Experiment [2] is described as follows: Inhibitory activity against (PDT22) Prephenate dehydratase. The arrangement: species or system Escherichia coli.
The subject of experiment [3] is Escherichia coli. The experiment can be described thus: Inhibitory activity against chorismate mutase at 500 uM; No inhibition.
The test system of experiment [4] is Escherichia coli. The experiment can be described thus: Inhibitory activity against (PDT22) Prephenate dehydratase at 500 uM; No inhibition.
For experiment [5], the system named is Escherichia coli. The experiment can be described thus: Inhibitory activity against chorismate mutase; No inhibition.
In experiment [6] the test system is Escherichia coli. The experiment can be described thus: Inhibitory activity against (PDT22) Prephenate dehydratase at 500 uM.
A short description of experiment [7]: Inhibitory activity against Chorismate mutase. Details: species or system Escherichia coli.

Calls of active or inactive are those of the source. The rule behind the calls is not given here. Where only a bound is given, the exact number is not on record here.

Consider `O=C(O)c1ccc([N+](=O)[O-])cc1-c1c(C(=O)O)cccc1[N+](=O)[O-]`, for which the IC50 turned out to be 1150 µM in experiment [1] and 0.75 mM in experiment [2].

With `O=C(O)c1ccccc1-c1c(C(=O)O)cccc1[N+](=O)[O-]`, the 50% inhibitory concentration (IC50) in experiment [1] was 280 µM; in experiment [2] it was 1.9 mM. `COc1cccc(C(=O)O)c1-c1ccccc1C(=O)O` showed an IC50 in experiment [2] of 4 mM. With `O=C(O)c1cccc([N+](=O)[O-])c1-c1cccc(F)c1C(=O)O`, the IC50 was 600 µM in experiment [1] and 2.25 mM in experiment [2]. Consider `O=C(O)c1ccccc1-c1ccccc1C(=O)O`, for which the inhibition entry with Escherichia coli [3] and in the experiment on Escherichia coli [4] was “inactive” throughout. As to `COc1cccc(C(=O)O)c1-c1c(C(=O)O)cccc1[N+](=O)[O-]`, the IC50 was found to be 800 µM in experiment [1] and 3 mM in experiment [2]. On the same counts, the results for `O=C(O)c1cccc(C(=O)O)c1-c1c(C(=O)O)cccc1[N+](=O)[O-]` are 450 µM and 1.7 mM.

For `Cc1cccc(C(=O)O)c1-c1c(C(=O)O)cccc1[N+](=O)[O-]`, the IC50 in experiment [1] was determined as 730 µM; in experiment [2] it was 1.3 mM. The like results for `O=C(O)c1ccccc1-c1c(O)cccc1C(=O)O` were, in that order, 1000 µM and 2.9 mM. On the same counts, the results for `O=C(O)c1cccc([N+](=O)[O-])c1-c1c(C(=O)O)cccc1[N+](=O)[O-]` are 50 µM and 0.6 mM. Turning to `CC(=O)Nc1cccc(C(=O)O)c1-c1c(NC(C)=O)cccc1C(=O)O`, the inhibition result with Escherichia coli [5] and with Escherichia coli [4] was “inactive” throughout. Consider `O=C(O)c1cc(O)ccc1-c1c(C(=O)O)cccc1[N+](=O)[O-]`, for which the half-maximal inhibitory concentration (IC50) worked out at 350 µM in experiment [1] and 0.95 mM in experiment [2].

As for `O=C(O)c1cc(O)c(O)cc1-c1c(C(=O)O)cccc1[N+](=O)[O-]`, the IC50 in experiment [1] came out at 1000 µM. In addition, the inhibition in the experiment on Escherichia coli [6] was less than 25%. Take `O=C(O)c1ccc([N+](=O)[O-])c(-c2c(C(=O)O)cccc2[N+](=O)[O-])c1`: the IC50 was 1350 µM in experiment [1] and 0.55 mM in experiment [2].

Take `O=C(O)c1cc(C(=O)O)c(-c2ccccc2[N+](=O)[O-])c(C(=O)O)c1`: the values for the 50% inhibitory concentration (IC50) in experiment [7] and in experiment [2] were 3 mM and 1.85 mM, respectively.
